pKi: −log10 of the molar value. Counter-ions that a name gives are not always drawn. Like-named read-outs stand apart in the source and are kept apart here.
Experiments:
[1] = amide bond
FVIIa = target: T1, FVIIa (Homo sapiens, UniProt P08709); assay: FVIIa Ki (25° C.): FVIIa peptide substrate assay; format: biochemical; conditions: S2288 peptide substrate, full-length human TF
T1 construct: with about 1% of the total amount in the proteolytically active form factor VIIa
Experimental: The effectiveness of compounds of the present invention as inhibitors of the coagulation Factors, VIIa, IXa, Xa, XIa, XIIa, plasma kallikrein or thrombin, tissue kallikrein and activated protein C, can be determined using a relevant purified serine protease, respectively, and an appropriate synthetic substrate. The rate of hydrolysis of the chromogenic or fluorogenic substrate by the relevant serine protease was measured both in the absence and presence of compounds of the present invention. […] A decrease in the rate of absorbance or fluorescence change in the presence of inhibitor is indicative of enzyme inhibition. Such methods are known to one skilled in the art. The results of this assay are expressed as the inhibitory constant, Ki.
a. FVIIa Ki (25° C.): FVIIa Peptide Substrate Assay
S2288 (range of concentrations) and FVIIa inhibitor were incubated for 15 minutes (min) at 25° C. Reactions were initiated by addition of a solution of full-length human TF (6 nM), FVIIa (0.75 nM), and PCPS (25 μM). FVIIa hydrolyses S2288, which was monitored for up to 60 min at 405 nm. Steady-state reaction velocity data (vs) was globally fit to Equation 1 for competitive inhibition. vs=Vmax[S]/([S]+Km(1+[I]/Ki)) (Eq. 1) where Vmax is maximum velocity, [S] is substrate concentration, Km is the Michaelis-Menten constant, [I] is the inhibitor concentration, and Ki is the inhibitor dissociation constant (GraFit, version 5, Erithacus Software Ltd, West Sussex, UK).

T1 sequence (P08709 213-466 limits assumed): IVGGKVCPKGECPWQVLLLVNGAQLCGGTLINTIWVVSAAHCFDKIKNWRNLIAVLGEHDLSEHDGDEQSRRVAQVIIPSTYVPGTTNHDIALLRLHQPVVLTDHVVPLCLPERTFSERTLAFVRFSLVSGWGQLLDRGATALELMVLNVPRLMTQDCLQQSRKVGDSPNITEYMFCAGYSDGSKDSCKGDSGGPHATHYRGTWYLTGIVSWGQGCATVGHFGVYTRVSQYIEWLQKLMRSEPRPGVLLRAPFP
T1 sequence (P08709 61-212 limits assumed): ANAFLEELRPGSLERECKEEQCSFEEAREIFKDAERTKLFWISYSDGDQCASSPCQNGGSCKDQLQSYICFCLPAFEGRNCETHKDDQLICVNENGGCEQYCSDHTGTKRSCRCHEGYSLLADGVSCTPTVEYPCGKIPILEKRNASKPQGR
T1 sequence (P13726 33-295 partner): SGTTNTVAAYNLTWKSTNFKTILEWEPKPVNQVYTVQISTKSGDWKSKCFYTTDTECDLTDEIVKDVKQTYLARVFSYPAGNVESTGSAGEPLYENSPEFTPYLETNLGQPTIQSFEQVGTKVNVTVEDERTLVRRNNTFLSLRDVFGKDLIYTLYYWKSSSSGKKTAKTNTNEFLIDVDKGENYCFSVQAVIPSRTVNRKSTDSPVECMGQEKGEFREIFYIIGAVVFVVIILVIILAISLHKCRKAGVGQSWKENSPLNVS

For CCOC(=O)CC1NC(=O)[C@H](Nc2ccc(C#N)cc2)c2ccc(OCC(F)F)c(c2)CCC(=O)Nc2cccc1c2 (some centres unmarked), the ring closure, isolated yield ([1]; 14-membered ring, HATU) was 21%.

Work on CN1Cc2cc(cc(F)c2OC(CF)CF)NC(=O)CCc2cc(ccc2OCC(F)F)C(Nc2ccc(C#N)cc2)C1=O (centres unmarked) yielded a ring closure, isolated yield ([1]; from CNCc1cc(NC(=O)CCc2cc(C(Nc3ccc(C#N)cc3)C(=O)O)ccc2OCC(F)F)cc(F)c1OC(CF)CF, 14-membered ring, BOP) of 44%.

Work on CN1Cc2cc(cc(F)c2OC(F)F)NC(=O)CCc2cccc(c2)C(Nc2ccc(C#N)cc2)C1=O (centres unmarked) yielded a ring closure, isolated yield ([1]; from CN(Cc1cc(N)cc(F)c1OC(F)F)C(=O)C(Nc1ccc(C#N)cc1)c1cccc(CCC(=O)O)c1, 14-membered ring, BOP/DMAP/DIPEA, DCM/DMF, 4.8 mM, 40.0 °C, 21.0 h) of 80%.

Work on CN1Cc2cc(cc(F)c2OCC(F)F)NC(=O)CCc2cc(ccc2OCC(F)F)C(Nc2ccc(C#N)cc2)C1=O (centres unmarked) yielded a ring closure, isolated yield ([1]; from CNCc1cc(NC(=O)CCc2cc(C(Nc3ccc(C#N)cc3)C(=O)O)ccc2OCC(F)F)cc(F)c1OCC(F)F, 14-membered ring, BOP) of 62%.

With CN1Cc2cc(ccc2S(=O)(=O)C(F)(F)F)NC(=O)CCc2cc(ccc2OCC(F)F)C(Nc2ccc3c(N(C(=O)OC(C)(C)C)C(=O)OC(C)(C)C)ncc(F)c3c2)C1=O (centres unmarked) the ring closure, isolated yield ([1]; from CNCc1cc(NC(=O)CCc2cc(C(Nc3ccc4c(N(C(=O)OC(C)(C)C)C(=O)OC(C)(C)C)ncc(F)c4c3)C(=O)O)ccc2OCC(F)F)ccc1S(=O)(=O)C(F)(F)F, 14-membered ring, BOP) was 45%.

For CN1Cc2cc(ccc2S(=O)(=O)C2CC2)NC(=O)CCc2cc(ccc2C2CC2)C(Nc2ccc3c(N(C(=O)OC(C)(C)C)C(=O)OC(C)(C)C)ncc(F)c3c2)C1=O (centres unmarked), the ring closure, isolated yield ([1]; from CNCc1cc(NC(=O)CCc2cc(C(Nc3ccc4c(N(C(=O)OC(C)(C)C)C(=O)OC(C)(C)C)ncc(F)c4c3)C(=O)O)ccc2C2CC2)ccc1S(=O)(=O)C1CC1, 14-membered ring, BOP) was 82%.

Compound CN1Cc2cc(ccc2S(=O)(=O)C2CC2)NC(=O)CCc2cc(ccc2F)C(Nc2ccc3c(N(C(=O)OC(C)(C)C)C(=O)OC(C)(C)C)ncc(F)c3c2)C1=O (centres unmarked) has a ring closure, isolated yield ([1]; from CNCc1cc(NC(=O)CCc2cc(C(Nc3ccc4c(N(C(=O)OC(C)(C)C)C(=O)OC(C)(C)C)ncc(F)c4c3)C(=O)O)ccc2F)ccc1S(=O)(=O)C1CC1, 14-membered ring, BOP/DMAP/DIPEA, DCM/DMF, 25.0 °C, 12.0 h) of 30%.

CN1Cc2cc(ccc2S(=O)(=O)C2CC2)NC(=O)CCc2cccc(c2)C(Nc2ccc3c(N(C(=O)OC(C)(C)C)C(=O)OC(C)(C)C)ncc(F)c3c2)C1=O (centres unmarked) showed a ring closure, isolated yield ([1]; from CNCc1cc(NC(=O)CCc2cccc(C(Nc3ccc4c(N(C(=O)OC(C)(C)C)C(=O)OC(C)(C)C)ncc(F)c4c3)C(=O)O)c2)ccc1S(=O)(=O)C1CC1, 14-membered ring, BOP/DMAP/DIPEA, DCM/DMF, 25.0 °C) of 41%.

In the case of CN1Cc2cc(ccc2S(=O)(=O)C2CC2)NC(=O)CCc2cccc(c2)C(Nc2ccc3c(N(C(=O)OC(C)(C)C)C(=O)OC(C)(C)C)nccc3c2)C1=O (centres unmarked), the ring closure, isolated yield ([1]; from CNCc1cc(NC(=O)CCc2cccc(C(Nc3ccc4c(N(C(=O)OC(C)(C)C)C(=O)OC(C)(C)C)nccc4c3)C(=O)O)c2)ccc1S(=O)(=O)C1CC1, 14-membered ring, BOP/DMAP/DIPEA, DCM/DMF, 23.3 mM, 25.0 °C, 12.0 h) was 50%.

With COc1c(F)cc2cc1CCC(=O)Nc1ccc(S(=O)(=O)C3CC3)c(c1)CN(C)C(=O)C2Nc1ccc2c(N(C(=O)OC(C)(C)C)C(=O)OC(C)(C)C)ncc(F)c2c1 (centres unmarked) the ring closure, isolated yield ([1]; from CNCc1cc(NC(=O)CCc2cc(C(Nc3ccc4c(N(C(=O)OC(C)(C)C)C(=O)OC(C)(C)C)ncc(F)c4c3)C(=O)O)cc(F)c2OC)ccc1S(=O)(=O)C1CC1, 14-membered ring, BOP/DMAP/DIPEA, DCM/DMF, 25.0 °C) was 18%.

Work on COc1cc2cc(c1)C(Nc1ccc3c(N(C(=O)OC(C)(C)C)C(=O)OC(C)(C)C)ncc(F)c3c1)C(=O)N(C)Cc1cc(ccc1S(=O)(=O)C1CC1)NC(=O)CC2 (centres unmarked) yielded a ring closure, isolated yield ([1]; from CNCc1cc(NC(=O)CCc2cc(OC)cc(C(Nc3ccc4c(N(C(=O)OC(C)(C)C)C(=O)OC(C)(C)C)ncc(F)c4c3)C(=O)O)c2)ccc1S(=O)(=O)C1CC1, 14-membered ring, BOP/DMAP/DIPEA, DCM/DMF, 25.0 °C, 12.0 h) of 69%.

With COc1ccc2cc1COCC(=O)Nc1ccc(S(=O)(=O)C3CC3)c(c1)CN(C)C(=O)C2Nc1ccc2c(N(C(=O)OC(C)(C)C)C(=O)OC(C)(C)C)nccc2c1 (centres unmarked) the ring closure, isolated yield ([1]; from CNCc1cc(NC(=O)COCc2cc(C(Nc3ccc4c(N(C(=O)OC(C)(C)C)C(=O)OC(C)(C)C)nccc4c3)C(=O)O)ccc2OC)ccc1S(=O)(=O)C1CC1, 15-membered ring, BOP/DMAP/DIPEA, DCM/DMF, 25.0 °C, 12.0 h) was 54%.

Work on C[C@@H]1CC(=O)Nc2ccc(OC(F)F)c(c2)CN(C)C(=O)C(Nc2ccc(C#N)cc2)c2ccc(OCc3ccccc3)c1c2 (some centres unmarked) yielded a ring closure, isolated yield ([1]; from CNCc1cc(NC(=O)C[C@@H](C)c2cc(C(Nc3ccc(C#N)cc3)C(=O)O)ccc2OCc2ccccc2)ccc1OC(F)F, 14-membered ring, BOP) of 64%.

Compound C[C@@H]1CC(=O)Nc2ccc(S(=O)(=O)C3CC3)c(c2)CN(C)C(=O)C(Nc2ccc3c(N(C(=O)OC(C)(C)C)C(=O)OC(C)(C)C)ncc(F)c3c2)c2ccc(OCc3ccccc3)c1c2 (some centres unmarked) has a ring closure, isolated yield ([1]; from CNCc1cc(NC(=O)C[C@@H](C)c2cc(C(Nc3ccc4c(N(C(=O)OC(C)(C)C)C(=O)OC(C)(C)C)ncc(F)c4c3)C(=O)O)ccc2OCc2ccccc2)ccc1S(=O)(=O)C1CC1, 14-membered ring, BOP) of 19%.

In the case of C[C@H]1CC(=O)Nc2ccc(S(=O)(=O)C3CC3)c(c2)CN(C)C(=O)C(Nc2ccc3c(N(C(=O)OC(C)(C)C)C(=O)OC(C)(C)C)ncc(F)c3c2)c2ccc(OCc3ccccc3)c1c2 (some centres unmarked), the ring closure, isolated yield ([1]; from CNCc1cc(NC(=O)C[C@H](C)c2cc(C(Nc3ccc4c(N(C(=O)OC(C)(C)C)C(=O)OC(C)(C)C)ncc(F)c4c3)C(=O)O)ccc2OCc2ccccc2)ccc1S(=O)(=O)C1CC1, 14-membered ring, BOP/DMAP/DIPEA, DCM/DMF, 25.0 °C) was 24%.

Work on CCCCOc1ccc2cc1CCC(=O)Nc1ccc(S(=O)(=O)C3CC3)c(c1)CN(C)C(=O)[C@@H]2Nc1ccc2c(N)ncc(F)c2c1 [Example 23, (R)-11-(1-Amino-4-fluoro-isoquinolin-6-ylamino)-7-butoxy-16-cyclopropanesulfonyl-13-methyl-2,13-diaza-tricyclo[13.3.1.1^6,10]icosa-1(19),6,8,10(20),15,17-hexaene-3,12-dione trifluroracetic acid salt] yielded a pKi (FVIIa) of 8.30.

CC(C)COc1ccc2cc1CCC(=O)Nc1ccc(S(=O)(=O)C3CC3)c(c1)CN(C)C(=O)[C@@H]2Nc1ccc2c(N)ncc(F)c2c1 [Example 24, (R)-11-(1-Amino-4-fluoro-isoquinolin-6-ylamino)-16-cyclopropanesulfonyl-7-isobutoxy-13-methyl-2,13-diaza-tricyclo[13.3.1.1^6,10]icosa-1(19),6,8,10(20),15,17-hexaene-3,12-dione trifluroracetic acid salt] showed a pKi (FVIIa) of 8.30.

Work on CN1Cc2cc(ccc2S(=O)(=O)C2CC2)NC(=O)CCc2cc(ccc2OCC2CCC2)[C@@H](Nc2ccc3c(N)ncc(F)c3c2)C1=O [Example 25, (R)-11-(1-Amino-4-fluoro-isoquinolin-6-ylamino)-7-cyclobutylmethoxy-16-cyclopropanesulfonyl-13-methyl-2,13-diaza-tricyclo[13.3.1.1^6,10]icosa-1(19),6,8,10(20),15,17-hexaene-3,12-dione trifluroracetic acid salt] yielded a pKi (FVIIa) of 8.22.

CC(C)Oc1ccc2cc1CCC(=O)Nc1ccc(S(=O)(=O)C3CC3)c(c1)CN(C)C(=O)[C@@H]2Nc1ccc2c(N)ncc(F)c2c1 [Example 26, (R)-11-(1-Amino-4-fluoro-isoquinolin-6-ylamino)-16-cyclopropanesulfonyl-7-isopropoxy-13-methyl-2,13-diaza-tricyclo[13.3.1.1^6,10]icosa-1(19),6,8,10(20),15,17-hexaene-3,12-dione trifluroracetic acid salt] gave a pKi (FVIIa) of 8.30.

With CN1Cc2cc(ccc2S(=O)(=O)C2CC2)NC(=O)N(CC2CCC2)CCc2cccc(c2)C(Nc2ccc3c(N)ncc(F)c3c2)C1=O (centres unmarked) [Example 27, 5-(1-Amino-4-fluoro-isoquinolin-6-ylamino)-13-cyclobutylmethyl-19-cyclopropanesulfonyl-3-methyl-3,13,15-triaza-tricyclo[14.3.1.1^6,10]henicosa-1(19),6(21),7,9,16(20),17-hexaene-4,14-dione trifluoroacetic acid salt] the pKi (FVIIa) was 6.83.

In the case of C[C@@H]1CC(=O)Nc2cccc(c2)[C@@H](CC(=O)O)NC(=O)[C@H](Nc2ccc(C(=N)N)cc2)c2ccc(OCC(F)F)c1c2 [Example 44, trifluoroacetic acid salt], the pKi (FVIIa) was 8.30.

With “(R)-11-(1-Amino-4-fluoro-isoquinolin-6-ylamino)-16-cyclopropane sulfonyl-7-(2,2-difluoro-ethoxy)-13-methyl-2,13-diaza-tricyclo[13.3.1.1^6,10]icosa-1(18),6,8,10(20),15(19),16-hexaene-3,12-dione trifluoroacetic acid salt [Example 33]” the pKi (FVIIa) was 7.68.

“(R)-11-(5-Amino-8-fluoro-naphthalen-2-ylamino)-16-cyclopropanesulfonyl-7-cyclopropyl-13-methyl-2,13-diaza-tricyclo[13.3.1.1^6,10]icosa-1(18),6,8,10(20),15(19),16-hexaene-3,12-dione trifluoroacetic acid salt [Example 36]” gave a pKi (FVIIa) of 8.30.

From US9657006B2, “Macrocyclic factor VIIa inhibitors” (BRISTOL-MYERS SQUIBB COMPANY, priority 2013, dated 2017)
